The target in assay [1] is Ubiquitin-conjugating enzyme E2 D2 (Homo sapiens) (UniProt P62837). Nature of the assay: Inhibition of E2 (unknown origin) assessed as reduction in biotin-labelled ubiquitin-E2 conjugate formation at 10 to 1000 uM pretreated for 30 mins followed by biotin-labelled ubiquitin addition and measured after 60 mins in presence of E1 by Western blot analysis.
In assay [2] the target is T1, Ubiquitin-like modifier-activating enzyme 1 (Homo sapiens) (UniProt P22314).
T1 sequence (whole entry): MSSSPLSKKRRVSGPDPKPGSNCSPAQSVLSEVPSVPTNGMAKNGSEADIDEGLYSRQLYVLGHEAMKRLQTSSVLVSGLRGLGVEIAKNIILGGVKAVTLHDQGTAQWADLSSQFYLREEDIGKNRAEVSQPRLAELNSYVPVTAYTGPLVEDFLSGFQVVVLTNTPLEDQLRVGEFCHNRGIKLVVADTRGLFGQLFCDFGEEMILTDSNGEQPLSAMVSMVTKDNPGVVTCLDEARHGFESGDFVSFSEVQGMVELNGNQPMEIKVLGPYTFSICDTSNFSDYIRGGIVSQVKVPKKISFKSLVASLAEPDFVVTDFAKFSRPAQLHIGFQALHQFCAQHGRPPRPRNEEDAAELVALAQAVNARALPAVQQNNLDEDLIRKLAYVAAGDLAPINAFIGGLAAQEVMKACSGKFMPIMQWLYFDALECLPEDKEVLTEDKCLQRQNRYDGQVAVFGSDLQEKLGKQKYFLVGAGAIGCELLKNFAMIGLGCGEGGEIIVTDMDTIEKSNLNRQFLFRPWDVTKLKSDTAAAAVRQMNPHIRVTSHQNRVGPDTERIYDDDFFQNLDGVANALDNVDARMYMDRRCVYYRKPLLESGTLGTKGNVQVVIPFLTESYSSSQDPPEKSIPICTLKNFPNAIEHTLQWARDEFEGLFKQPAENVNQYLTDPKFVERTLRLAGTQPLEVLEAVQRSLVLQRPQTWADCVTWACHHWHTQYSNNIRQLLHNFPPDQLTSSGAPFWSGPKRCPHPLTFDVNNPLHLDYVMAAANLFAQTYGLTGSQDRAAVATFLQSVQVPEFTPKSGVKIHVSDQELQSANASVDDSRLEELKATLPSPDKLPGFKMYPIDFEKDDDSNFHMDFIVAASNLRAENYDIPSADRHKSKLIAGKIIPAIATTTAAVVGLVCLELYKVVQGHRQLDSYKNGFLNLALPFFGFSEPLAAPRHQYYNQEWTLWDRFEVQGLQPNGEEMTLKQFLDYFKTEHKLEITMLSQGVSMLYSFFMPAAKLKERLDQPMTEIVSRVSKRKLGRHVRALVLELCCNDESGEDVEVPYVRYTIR
The experiment in a line: Inhibition of recombinant human E1 expressed in Escherichia coli BL21(DE3) assessed as reduction in biotin-labelled ubiquitin-E1 conjugate formation up to 1000 uM pretreated for 30 mins followed by biotin-labelled ubiquitin addition and measured after 30 mins by Western blot analysis. In general terms: A western blot detects proteins with antibodies after separation by electrophoresis.

In the next assay the test system is MCF7. The experiment in a line: Growth inhibition of human MCF7 cells after 72 hrs by alamar blue assay. The assay is classed as functional. The conditions noted are these: MCF7, 72 h. Background: The colour change of resazurin is a common sign of viable cells or microbes.
The target of assay [3] is T1, Ubiquitin-like modifier-activating enzyme 1 (Homo sapiens). Nature of the assay: Inhibition of recombinant human E1 expressed in Escherichia coli BL21(DE3) assessed as reduction in biotin-labelled ubiquitin-E1 conjugate formation pretreated for 30 mins followed by biotin-labelled ubiquitin addition and measured after 30 mins by Western blot analysis.
Assay [4] has the same target. The experiment in a line: Inhibition of E1 in human MCF7 cells assessed as increase in p53 levels at 100 uM measured after 24 hrs by Western blot analysis. It is filed as cell-based.
Assay [5] has the same target. Nature of the assay: Reversible inhibition of recombinant human E1 expressed in Escherichia coli BL21(DE3) assessed as reduction in biotin-labelled ubiquitin-E1 conjugate formation at 100 uM pretreated for 60 mins followed by 2.5 uM biotin-labelled ubiquitin addition for 30 mins and subsequent 5 uM biotin-labelled ubiquitin addition by Western blot analysis.
The target in assay [6] is Ubiquitin-conjugating enzyme E2 D2 (Homo sapiens) (UniProt P62837). The experiment in a line: Inhibition of E2 (unknown origin) assessed as reduction in biotin-labelled ubiquitin-E2 conjugate formation pretreated for 30 mins followed by biotin-labelled ubiquitin addition and measured after 60 mins in presence of E1 by Western blot analysis.
Assay [7] concerns the target T1, Ubiquitin-like modifier-activating enzyme 1 (Homo sapiens). The experiment in a line: Reversible inhibition of recombinant human E1 expressed in Escherichia coli BL21(DE3) assessed as reduction in biotin-labelled ubiquitin-E1 conjugate formation at 100 uM pretreated for 60 mins followed by 2.5 uM biotin-labelled ubiquitin addition for 30 mins and subsequent 5 uM biotin-labelled ubiquitin addition measured after 30 mins by Western blot analysis.

The source made the active and inactive calls. The calls are words filed in the database; no cut-off is given here.

Chain of Ubiquitin-conjugating enzyme E2 D2 (Homo sapiens) (P62837 whole entry, looked up): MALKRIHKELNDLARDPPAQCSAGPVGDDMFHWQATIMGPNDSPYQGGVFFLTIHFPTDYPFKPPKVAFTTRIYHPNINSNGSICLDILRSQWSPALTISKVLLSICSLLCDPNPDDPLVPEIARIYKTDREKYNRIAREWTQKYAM

`COC(=O)CNC(=O)CCCc1ccc(OCCCNC(C)=O)c(CCCC(C)C)c1`: in assay [1], the inhibition result is “inactive”. The inhibition result in assay [2] is “Active”.
On to `COC(=O)CNC(=O)CCCc1ccc(OCCCNC(=O)c2ccccc2)c(CCCC(C)C)c1`, for which it took 63.4 µM to inhibit growth with MCF7 by half (GI50). In addition, the inhibition entry in assay [3] and in assay [6] was “Dose-dependent effect” throughout. The inhibition entry in assay [4], in assay [5] and in assay [7] was “Active” throughout.
As for `COC(=O)CNC(=O)CCCc1ccc(OCCCN)c(CCCC(C)C)c1`, the inhibition entry in assay [1] and in assay [2] was “inactive” throughout.

As usually defined, the GI50 is the concentration that inhibits growth by half. Lower therefore signals more potent growth inhibition.

For the origin of these results see ChEMBL document CHEMBL4229347, “Design, synthesis, and biological evaluation of novel ubiquitin-activating enzyme inhibitors” (2018).
